The values below come from PMC10315697, “Evaluation of ^134Ce/^134La as a PET Imaging Theranostic Pair for ^225Ac α-Radiotherapeutics” (Journal of Nuclear Medicine, 2023).

Data set [1] can be described thus: Ex vivo biodistribution of free and chelated ^134Ce/^225Ac in healthy mice. To be noted: healthy wild-type C57BL/6 mice, tail vein injection, 1 h for ^134Ce.
On the set-up of data set [2]: method as in PMID 34190542. The settings on record: for nonradioactive cerium ref 14; cited from earlier work.

In data set [1], `O=C([O-])CN1CCN(CC(=O)[O-])CCN(CC(=O)[O-])CCN(CC(=O)[O-])CC1.[225Ac+3]` [^225Ac-DOTA] registered a blood uptake of 0.23 ± 0.02 %ID/g, a bone uptake of 2.26 ± 0.56 %ID/g, a kidney uptake of 3.07 ± 0.99 %ID/g and a liver uptake of 0.28 ± 0.008 %ID/g.

With `O=C(O)c1cccc(CN2CCOCCOCCN(Cc3cccc(C(=O)O)n3)CCOCCOCC2)n1` [MACROPA], in data set [2], the “stability (KLnL)” value is reported as 15.1.

As for `[Cl][134Ce]([Cl])[Cl]` [^134CeCl3], in data set [1], the bone uptake stood at 15.54 ± 2.69 %ID/g and the liver uptake was 71.5 ± 4.3 %ID/g.

In data set [1], `[225Ac+3].[Cl-].[Cl-].[Cl-]` [^225AcCl3] showed a bone uptake of 29.56 ± 2.40 %ID/g and a liver uptake of 38.33 ± 6.75 %ID/g.
